The record followed here is patent US5955440A, “Macrolide LHRH antagonists” (Abbott Laboratories, priority 1998, dated 1999).

Counter-ions that a name gives are not always drawn.

For the test, the target named is T1, LHRH rat pituitary receptor (Rattus norvegicus, UniProt P30969).
T1 construct: from tissue; host or cells: rat pituitary
T1 sequence (P30969 1-327): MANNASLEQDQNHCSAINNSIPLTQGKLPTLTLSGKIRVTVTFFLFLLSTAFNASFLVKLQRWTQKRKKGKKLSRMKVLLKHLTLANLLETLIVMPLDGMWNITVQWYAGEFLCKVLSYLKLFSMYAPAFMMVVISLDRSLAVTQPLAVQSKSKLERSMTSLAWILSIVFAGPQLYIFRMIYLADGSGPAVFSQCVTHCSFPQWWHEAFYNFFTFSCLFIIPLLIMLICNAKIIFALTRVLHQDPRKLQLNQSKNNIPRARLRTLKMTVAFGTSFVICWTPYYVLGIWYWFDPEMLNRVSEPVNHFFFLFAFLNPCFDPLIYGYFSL
Description: LHRH rat pituitary receptor binding (pKI). Conditions: negative logarithm of the equilibrium dissociation constants, Table 1, read-out: receptor binding affinity (pKI) (converted). Here is the method: Representative compounds of the present invention were evaluated in in vitro tests for LHRH rat pituitary receptor binding (pKI) and for LH inhibition from rat pituitary cells for antagonist potency (pA2). The tests employed the methods detailed in F. Haviv, et al. J. Med. Chem., 32: 2340-2344 (1989). The receptor binding affinity (pKI) is the negative logarithm of the equilibrium dissociation constants.

Take `CC[C@H]1OC(=O)[C@H](C)[C@@H](O[C@H]2C[C@@](C)(OC)[C@@H](O)[C@H](C)O2)[C@H](C)[C@@H](O[C@@H]2O[C@H](C)C[C@H](N(C)CCC(C)C)[C@H]2O)[C@](C)(OC)C[C@@H](C)C(=O)[C@H](C)[C@H]2N(CCc3ccc(Cl)c(Cl)c3)C(=O)O[C@]12C` [Example 6]: the Ki is 8.13 nM.

In the case of `CC[C@H]1OC(=O)[C@H](C)[C@@H](O[C@H]2C[C@@](C)(OC)[C@@H](O)[C@H](C)O2)[C@H](C)[C@@H](O[C@@H]2O[C@H](C)C[C@H](N(C)C3CC3)[C@H]2O)[C@](C)(OC)C[C@@H](C)C(=O)[C@H](C)[C@H]2N(CCc3ccc(Cl)c(Cl)c3)C(=O)O[C@]12C` [Example 2, 3'-N-Desmethyl-3'-N-cyclopropyl-11-deoxy-11-[carboxy-(3,4-dichlorophenethylamino)]-6-O-methyl-erythromycin A 11,12-(cyclic carbamate)], the Ki is 0.575 nM.

As for `CC[C@H]1OC(=O)[C@H](C)[C@@H](O[C@H]2C[C@@](C)(OC)[C@@H](O)[C@H](C)O2)[C@H](C)[C@@H](O[C@@H]2O[C@H](C)C[C@H](N(C)CCCCc3cccc(C)n3)[C@H]2O)[C@](C)(OC)C[C@@H](C)C(=O)[C@H](C)[C@H]2N(CCc3ccc(F)c(Cl)c3)C(=O)O[C@]12C` [Example 84, 3'-N-Desmethyl-3'-N-[4-(6-methyl)-2-pyridyl]butyl-11-deoxy-11-[carboxy-(3-chloro-4-fluorophenethylamino)]-6-O-methyl-erythromycin A 11,12-(cyclic carbamate)], the Ki was 7.08 nM.

As for `CC[C@H]1OC(=O)[C@H](C)[C@@H](O[C@H]2C[C@@](C)(OC)[C@@H](O)[C@H](C)O2)[C@H](C)[C@@H](O[C@@H]2O[C@H](C)C[C@H](N(C)Cc3cccc(C)n3)[C@H]2O)[C@](C)(OC)C[C@@H](C)C(=O)[C@H](C)[C@H]2N(CCc3ccc(Cl)c(Cl)c3)C(=O)O[C@]12C` [Example 70, 3'-N-Desmethyl-3'-N-[6-methyl-2-pyridylmethyl]-11-deoxy-11-[carboxy-(3,4-dichlorophenethylamino)]-6-O-methyl-erythromycin A 11,12-(cyclic carbamate)], the Ki was 5.89 nM.

With `CC[C@H]1OC(=O)[C@H](C)[C@@H](O[C@H]2C[C@@](C)(OC)[C@@H](O)[C@H](C)O2)[C@H](C)[C@@H](O[C@@H]2O[C@H](C)C[C@H](N(C)CCC(C)SC)[C@H]2O)[C@](C)(OC)C[C@@H](C)C(=O)[C@H](C)[C@H]2N(CCc3ccc(Cl)c(Cl)c3)C(=O)O[C@]12C` (stereo partly shown) [Example 93, 3'-N-Desmethyl-3'-N-[(3-methylthio)butyl]-11-deoxy-11-[carboxy-(3,4-dichlorophenethylamino)]-6-O-methyl-erythromycin A 11,12-(cyclic carbamate)], the Ki was 5.01 nM.

`CC[C@H]1OC(=O)[C@H](C)[C@@H](O[C@H]2C[C@@](C)(OC)[C@@H](O)[C@H](C)O2)[C@H](C)[C@@H](O[C@@H]2O[C@H](C)C[C@H](N(C)Cc3ccco3)[C@H]2O)[C@](C)(OC)C[C@@H](C)C(=O)[C@H](C)[C@H]2N(CCc3ccc(Cl)c(Cl)c3)C(=O)O[C@]12C` [Example 75, 3'-N-Desmethyl-3'-N-(2-furylmethyl)-11-deoxy-11-[carboxy-(3,4-dichlorophenethylamino)]-6-O-methyl-erythromycin A 11,12-(cyclic carbamate)]: the Ki was 1.26 nM.

Regarding `CC[C@H]1OC(=O)[C@H](C)[C@@H](O[C@H]2C[C@@](C)(OC)[C@@H](O)[C@H](C)O2)[C@H](C)[C@@H](O[C@@H]2O[C@H](C)C[C@H](N(C)C3CCCCC3)[C@H]2O)[C@](C)(OC)C[C@@H](C)C(=O)[C@H](C)[C@H]2N(CCc3ccc(Cl)c(Cl)c3)C(=O)O[C@]12C` [Example 5, 3'-N-Desmethyl-3'-N-cyclohexyl-11-deoxy-11-[carboxy-(3,4-dichlorophenethylamino)]-6-O-methyl-erythromycin A 11,12-(cyclic carbamate)], the Ki is 3.63 nM.

With `CCCN(C)[C@H]1C[C@@H](C)O[C@@H](O[C@@H]2[C@@H](C)[C@H](O[C@H]3C[C@@](C)(OC)[C@@H](O)[C@H](C)O3)[C@@H](C)C(=O)O[C@H](CC)[C@@]3(C)OC(=O)N(CCc4ccc(F)c(Cl)c4)[C@@H]3[C@@H](C)C(=O)[C@H](C)C[C@@]2(C)OC)[C@@H]1O` [Example 44, 3'-N-Desmethyl-3'-N-propyl-11-deoxy-11-[carboxy-(3-chloro-4-fluorophenethylamino)]-6-O-methyl-erythromycin A 11,12-(cyclic carbamate)], the Ki is 1.45 nM.

With `CC[C@H]1OC(=O)[C@H](C)[C@@H](O[C@H]2C[C@@](C)(OC)[C@@H](O)[C@H](C)O2)[C@H](C)[C@@H](O[C@@H]2O[C@H](C)C[C@H](N(C)C3CCCCC3)[C@H]2O)[C@](C)(OC)C[C@@H](C)C(=O)[C@H](C)[C@H]2N(CC3(c4ccc(Cl)c(Cl)c4)CC3)C(=O)O[C@]12C` [Example 13, 3'-N-Desmethyl-3'-N-cyclohexyl-11-deoxy-11-[carboxy-(α,α-cyclopropyl-3,4-dichlorophenethylamino)]-6-O-methyl-erythromycin A 11,12-(cyclic carbamate)], the Ki was 7.94 nM.

As to `CC[C@H]1OC(=O)[C@H](C)[C@@H](O[C@H]2C[C@@](C)(OC)[C@@H](O)[C@H](C)O2)[C@H](C)[C@@H](O[C@@H]2O[C@H](C)C[C@H](N(C)CC3CC3)[C@H]2O)[C@](C)(OC)C[C@@H](C)C(=O)[C@H](C)[C@H]2N(CC3(c4ccc(Cl)c(Cl)c4)CC3)C(=O)O[C@]12C` [Example 59, 3'-N-Desmethyl-3'-N-cyclopropylmethyl-11-deoxy-11-[carboxy-(α,α-cyclopropyl-3,4-dichlorophenethylamino)]-6-O-methyl-erythromycin A 11,12-(cyclic carbamate)], the Ki is 3.72 nM.

With `CC[C@H]1OC(=O)[C@H](C)[C@@H](O[C@H]2C[C@@](C)(OC)[C@@H](O)[C@H](C)O2)[C@H](C)[C@@H](O[C@@H]2O[C@H](C)C[C@H](N(C)Cc3ccc(O)cc3)[C@H]2O)[C@](C)(OC)C[C@@H](C)C(=O)[C@H](C)[C@H]2N(CCc3ccc(Cl)c(Cl)c3)C(=O)O[C@]12C` [Example 91, 3'-N-Desmethyl-3'-N-(4-hydroxybenzyl)-11-deoxy-11-[carboxy-(3,4-dichlorophenethylamino)]-6-O-methyl-erythromycin A 11,12-(cyclic carbamate)], the Ki was 9.55 nM.

In the case of `CC[C@H]1OC(=O)[C@H](C)[C@@H](O[C@H]2C[C@@](C)(OC)[C@@H](O)[C@H](C)O2)[C@H](C)[C@@H](O[C@@H]2O[C@H](C)C[C@H](N(C)CCC[S+](C)[O-])[C@H]2O)[C@](C)(OC)C[C@@H](C)C(=O)[C@H](C)[C@H]2N(CCc3ccc(Cl)c(Cl)c3)C(=O)O[C@]12C` (stereo partly shown) [Example 56, 3'-N-Desmethyl-3'-N-[3-(methylsulfoxy)propyl]-11-deoxy-11-[carboxy-(3,4-dichlorophenethylamino)]-6-O-methyl-erythromycin A 11,12-(cyclic carbamate)], the Ki is 1.78 nM.

Regarding `CC[C@H]1OC(=O)[C@H](C)[C@@H](O[C@H]2C[C@@](C)(OC)[C@@H](O)[C@H](C)O2)[C@H](C)[C@@H](O[C@@H]2O[C@H](C)C[C@H](N(C)C3CCC3)[C@H]2O)[C@](C)(OC)C[C@@H](C)C(=O)[C@H](C)[C@H]2N(CC3(c4ccc(Cl)c(Cl)c4)CC3)C(=O)O[C@]12C` [Example 11, 3'-N-Desmethyl-3'-N-cyclobutyl-11-deoxy-11-[carboxy-(α,α-cyclopropyl-3,4-dichlorophenethylamino)]-6-O-methyl-erythromycin A 11,12-(cyclic carbamate)], the Ki is 3.09 nM.

In the case of `CC[C@H]1OC(=O)[C@H](C)[C@@H](O[C@H]2C[C@@](C)(OC)[C@@H](O)[C@H](C)O2)[C@H](C)[C@@H](O[C@@H]2O[C@H](C)C[C@H](N(C)CC3CC(OC)OC3OC)[C@H]2O)[C@](C)(OC)C[C@@H](C)C(=O)[C@H](C)[C@H]2N(CCc3ccc(Cl)c(Cl)c3)C(=O)O[C@]12C` (stereo partly shown) [Example 69, 3'-N-Desmethyl-3'-N-[2,5-dimethoxy-3-tetrahydrofurylmethyl]-11-deoxy-11-[carboxy-(3,4-dichlorophenethylamino)]-6-O-methyl-erythromycin A 11,12-(cycliccarbamate)], the Ki is 6.17 nM.

Take `CC[C@H]1OC(=O)[C@H](C)[C@@H](O[C@H]2C[C@@](C)(OC)[C@@H](O)[C@H](C)O2)[C@H](C)[C@@H](O[C@@H]2O[C@H](C)C[C@H](N(C)CCCSC)[C@H]2O)[C@](C)(OC)C[C@@H](C)C(=O)[C@H](C)[C@H]2N(CCc3ccc(Cl)c(Cl)c3)C(=O)O[C@]12C` [Example 7, 3'-N-Desmethyl-3'-N-(3-methylthiopropyl)-11-deoxy-11-[carboxy-(3,4-dichlorophenethylamino)]-6-O-methyl-erythromycin A 11,12-(cyclic carbamate)]: the Ki was 4.68 nM.

Regarding `CC[C@H]1OC(=O)[C@H](C)[C@@H](O[C@H]2C[C@@](C)(OC)[C@@H](O)[C@H](C)O2)[C@H](C)[C@@H](O[C@@H]2O[C@H](C)C[C@H](N(C)C3CCC3)[C@H]2O)[C@](C)(OC)C[C@@H](C)C(=O)[C@H](C)[C@H]2N(CCc3ccc(Cl)c(Cl)c3)C(=O)O[C@]12C` [Example 4, 3'-N-Desmethyl-3'-N-cyclobutyl-11-deoxy-11-[carboxy-(3,4-dichlorophenethylamino)]-6-O-methyl-erythromycin A 11,12-(cyclic carbamate) hydrochloride], the Ki is 3.24 nM.
